Drawing on patent publication US20140228349A1, “5,7-SUBSTITUTED-IMIDAZO[1,2-C]PYRIMIDINES” (Array BioPharma Inc., priority 2011, published 2014), this text covers IC50 for 14 molecules.

Some results are limits rather than exact numbers.

Holding throughout (format): biochemical
One assay has as its target T1, Human Tyk2 kinase domain (Homo sapiens, UniProt P29597).
T1 construct: comprising amino acids 886 to 1187; His10 (10 histidine residues) (C, cleaved yes); made in house
T1 sequence (P29597 886-1187): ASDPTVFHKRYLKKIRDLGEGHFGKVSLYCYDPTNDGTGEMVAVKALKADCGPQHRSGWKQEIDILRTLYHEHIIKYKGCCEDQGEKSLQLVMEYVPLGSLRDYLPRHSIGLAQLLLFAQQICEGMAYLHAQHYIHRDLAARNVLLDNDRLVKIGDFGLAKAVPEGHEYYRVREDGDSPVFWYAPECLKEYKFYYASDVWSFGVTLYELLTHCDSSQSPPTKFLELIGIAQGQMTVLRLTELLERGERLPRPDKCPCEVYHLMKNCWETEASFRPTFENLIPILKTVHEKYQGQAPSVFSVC
Nature of the assay: Tyk2 Inhibition Assay (Omnia kinase fluorescence peptide substrate). To be noted: averaged IC50 ranges; 10 μM (Km app) or 1 mM ATP, 2 nM Tyk2. Put shortly:
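Phosphorylation of 8 μM Omnia Y12 peptide followed kinetically by Sox fluorescence, ex 360/em 485 nm, every 50 s for 45 min. Enzyme: 2 nM Tyk2 kinase domain (aa 886–1187, His tag removed); ATP at 10 μM (Km app) or 1 mM; buffer HEPES pH 7.4 with MgCl2, Triton X-100, DTT. 10-point curves up to 10 μM, IC50 from 4-parameter logistic fit.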

In a further assay the target is T2, JAK1 (Homo sapiens, UniProt P23458).
T2 construct: purchased Invitrogen Corporation, Carlsbad, Calif; IVGN PV4775
T2 sequence (P23458 whole entry): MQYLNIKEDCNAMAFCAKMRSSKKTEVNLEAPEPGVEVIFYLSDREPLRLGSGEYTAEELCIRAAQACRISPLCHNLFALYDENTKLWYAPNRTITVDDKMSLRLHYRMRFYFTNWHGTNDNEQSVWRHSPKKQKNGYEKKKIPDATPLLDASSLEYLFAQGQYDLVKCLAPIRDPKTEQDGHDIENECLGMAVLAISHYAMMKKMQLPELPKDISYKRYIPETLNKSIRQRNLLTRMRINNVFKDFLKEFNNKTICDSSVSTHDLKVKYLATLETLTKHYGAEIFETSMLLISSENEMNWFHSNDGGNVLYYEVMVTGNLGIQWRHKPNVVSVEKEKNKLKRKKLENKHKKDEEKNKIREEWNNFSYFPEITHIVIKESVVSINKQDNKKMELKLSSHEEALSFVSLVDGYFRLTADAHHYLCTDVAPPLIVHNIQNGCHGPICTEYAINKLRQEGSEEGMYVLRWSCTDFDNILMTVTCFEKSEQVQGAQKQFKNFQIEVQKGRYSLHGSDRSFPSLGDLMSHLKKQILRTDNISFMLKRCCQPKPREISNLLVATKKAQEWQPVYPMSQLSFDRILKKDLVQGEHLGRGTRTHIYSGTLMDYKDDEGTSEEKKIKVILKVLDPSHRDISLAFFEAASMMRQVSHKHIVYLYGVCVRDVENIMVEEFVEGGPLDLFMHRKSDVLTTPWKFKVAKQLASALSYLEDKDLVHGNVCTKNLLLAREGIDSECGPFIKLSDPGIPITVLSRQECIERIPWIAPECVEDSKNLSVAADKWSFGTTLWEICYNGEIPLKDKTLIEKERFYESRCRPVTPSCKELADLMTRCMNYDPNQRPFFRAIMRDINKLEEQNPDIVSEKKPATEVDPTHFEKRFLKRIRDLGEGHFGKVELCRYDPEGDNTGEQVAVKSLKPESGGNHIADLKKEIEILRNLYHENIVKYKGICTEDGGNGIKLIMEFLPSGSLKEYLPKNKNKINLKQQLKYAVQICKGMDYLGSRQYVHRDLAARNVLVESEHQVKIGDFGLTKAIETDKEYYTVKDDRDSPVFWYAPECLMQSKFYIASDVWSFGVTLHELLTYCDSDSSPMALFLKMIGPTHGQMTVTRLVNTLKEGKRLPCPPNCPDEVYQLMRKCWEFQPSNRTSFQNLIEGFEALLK
Description: JAK1 Inhibition Assay (Omnia kinase fluorescence peptide substrate). As to conditions: averaged IC50 ranges; 40 μM (Km app) or 1 mM ATP, 15 nM JAK1. An outline of the steps: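 15 nM JAK1, 8 μM Omnia Y12 peptide, 40 μM (Km app) or 1 mM ATP; 25 mM HEPES pH 7.4, 10 mM MgCl2, 2% DMSO. Fluorescence (ex 360/em 485 nm) read every 50 s over 45 min. IC50 by 4-parameter fit of percent of control, top dose 10 μM.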

The target of another assay is T3, JAK2 (Homo sapiens, UniProt O60674).
T3 construct: purchased Invitrogen Corporation, Carlsbad, Calif; IVGN PV4288
T3 sequence (O60674 whole entry): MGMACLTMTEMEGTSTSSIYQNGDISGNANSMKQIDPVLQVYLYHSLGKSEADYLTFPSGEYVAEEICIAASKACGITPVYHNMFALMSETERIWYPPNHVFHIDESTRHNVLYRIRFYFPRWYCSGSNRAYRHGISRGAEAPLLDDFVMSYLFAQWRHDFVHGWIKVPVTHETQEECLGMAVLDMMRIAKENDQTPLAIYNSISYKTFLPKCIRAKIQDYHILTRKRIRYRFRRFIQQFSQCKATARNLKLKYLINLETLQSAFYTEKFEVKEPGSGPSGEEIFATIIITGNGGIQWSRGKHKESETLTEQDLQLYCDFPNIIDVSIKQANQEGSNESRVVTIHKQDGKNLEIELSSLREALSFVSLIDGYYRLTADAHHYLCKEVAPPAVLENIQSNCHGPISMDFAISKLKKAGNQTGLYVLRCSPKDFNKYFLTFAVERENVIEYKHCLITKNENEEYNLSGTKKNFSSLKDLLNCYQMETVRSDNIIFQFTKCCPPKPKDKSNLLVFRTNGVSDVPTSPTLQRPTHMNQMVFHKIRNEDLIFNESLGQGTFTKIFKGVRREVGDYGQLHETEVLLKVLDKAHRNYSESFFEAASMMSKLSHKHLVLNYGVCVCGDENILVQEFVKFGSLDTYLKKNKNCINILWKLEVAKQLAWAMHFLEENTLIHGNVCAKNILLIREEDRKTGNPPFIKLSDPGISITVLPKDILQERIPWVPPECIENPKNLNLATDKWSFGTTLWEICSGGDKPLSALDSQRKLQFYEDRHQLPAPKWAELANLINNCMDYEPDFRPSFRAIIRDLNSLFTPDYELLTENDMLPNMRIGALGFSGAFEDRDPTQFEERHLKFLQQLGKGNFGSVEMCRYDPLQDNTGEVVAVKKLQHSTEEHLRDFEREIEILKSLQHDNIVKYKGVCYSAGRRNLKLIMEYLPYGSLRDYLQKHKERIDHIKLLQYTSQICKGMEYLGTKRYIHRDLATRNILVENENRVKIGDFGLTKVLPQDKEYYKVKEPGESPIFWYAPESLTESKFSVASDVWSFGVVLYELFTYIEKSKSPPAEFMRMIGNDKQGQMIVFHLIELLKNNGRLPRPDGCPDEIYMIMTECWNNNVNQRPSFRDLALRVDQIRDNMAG
Description: JAK2 Inhibition Assay (Omnia kinase fluorescence peptide substrate). To be noted: averaged IC50 ranges; 25 μM (Km app) or 1 mM ATP, 5 nM JAK2.

The next assay concerns the target T4, JAK3 (Homo sapiens, UniProt P52333).
T4 construct: purchased Invitrogen Corporation, Carlsbad, Calif; IVGN PV4080
T4 sequence (P52333 1-1124): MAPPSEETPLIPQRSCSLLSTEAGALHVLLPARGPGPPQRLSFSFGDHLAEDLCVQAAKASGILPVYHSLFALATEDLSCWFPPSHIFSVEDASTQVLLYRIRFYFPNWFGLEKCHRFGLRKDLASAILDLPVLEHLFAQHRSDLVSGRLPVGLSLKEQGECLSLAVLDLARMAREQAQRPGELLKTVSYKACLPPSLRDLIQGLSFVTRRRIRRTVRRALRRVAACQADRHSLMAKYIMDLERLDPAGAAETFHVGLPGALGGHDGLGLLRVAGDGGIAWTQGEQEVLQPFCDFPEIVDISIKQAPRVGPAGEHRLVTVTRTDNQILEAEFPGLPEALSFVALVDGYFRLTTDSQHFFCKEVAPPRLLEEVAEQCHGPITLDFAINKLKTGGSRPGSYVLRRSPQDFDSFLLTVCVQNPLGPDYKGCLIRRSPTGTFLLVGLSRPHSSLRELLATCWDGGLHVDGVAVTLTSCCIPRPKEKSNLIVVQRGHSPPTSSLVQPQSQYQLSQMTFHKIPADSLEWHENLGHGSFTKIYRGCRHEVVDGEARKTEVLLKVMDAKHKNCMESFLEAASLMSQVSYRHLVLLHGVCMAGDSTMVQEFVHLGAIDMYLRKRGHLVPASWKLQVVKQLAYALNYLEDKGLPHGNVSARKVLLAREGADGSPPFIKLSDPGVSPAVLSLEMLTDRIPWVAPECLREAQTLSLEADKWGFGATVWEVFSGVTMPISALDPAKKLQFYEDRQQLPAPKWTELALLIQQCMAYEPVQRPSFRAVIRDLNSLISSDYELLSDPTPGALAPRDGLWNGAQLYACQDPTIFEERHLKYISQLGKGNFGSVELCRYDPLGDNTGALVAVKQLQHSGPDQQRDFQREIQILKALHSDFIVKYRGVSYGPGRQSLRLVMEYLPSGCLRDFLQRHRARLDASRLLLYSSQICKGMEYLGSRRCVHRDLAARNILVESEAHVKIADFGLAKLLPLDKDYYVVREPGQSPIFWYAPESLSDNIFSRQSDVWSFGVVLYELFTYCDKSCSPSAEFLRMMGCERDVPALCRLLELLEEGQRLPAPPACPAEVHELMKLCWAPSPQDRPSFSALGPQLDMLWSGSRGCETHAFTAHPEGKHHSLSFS
Description: JAK3 Inhibition Assay (Omnia kinase fluorescence peptide substrate). As to conditions: averaged IC50 ranges; 10 μM (Km app) or 1 mM ATP, 2.5 nM JAK3. An outline of the steps:
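IC50 is the concentration giving 50 percent of control on a 4-parameter logistic fit of 10-point, 3-fold dilutions from a 10 μM top dose, at 2% final DMSO. Kinetic Sox fluorescence (360/485 nm) was monitored every 50 s for 45 min. Mix: JAK3 2.5 nM, Omnia Y7 peptide 10 μM, ATP 10 μM (Km app) or 1 mM, in HEPES pH 7.4 buffer with MgCl2, Triton X-100 and DTT.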

For `CCOCCC(C1CCC1)n1cc(-c2nc(-c3cnn(C)c3)cc3nccn23)cn1` (centres unmarked) [Example 67, 5-(1-(1-cyclobutyl-3-ethoxypropyl)-1H-pyrazol-4-yl)-7-(1-methyl-1H-pyrazol-4-yl)imidazo[1,2-c]pyrimidine], the IC50 (usually the concentration at which inhibition is half-maximal) on Human Tyk2 kinase domain is 100 to 1000 nM; against JAK1, above 1000 nM; at JAK2, 100 to 1000 nM; against JAK3, above 1000 nM.

In the case of `Cn1cc(-c2cc3nccn3c(-c3cnn(C(CO)C4CC4)c3)n2)cn1` (centres unmarked) [Example 6, 2-cyclopropyl-2-(4-(7-(1-methyl-1H-pyrazol-4-yl)imidazo[1,2-c]pyrimidin-5-yl)-1H-pyrazol-1-yl)ethanol], the half-inhibitory concentration (IC50) was 100 to 1000 nM against Human Tyk2 kinase domain, above 1000 nM on JAK1, above 1000 nM on JAK2 and above 1000 nM against JAK3.

Take `Cn1cc(-c2cc3nccn3c(-c3cnn(C4CCCC4)c3)n2)cn1` [Example 34, 5-(1-cyclopentyl-1H-pyrazol-4-yl)-7-(1-methyl-1H-pyrazol-4-yl)imidazo[1,2-c]pyrimidine]: the 50% inhibitory concentration (IC50) is 100 to 1000 nM at Human Tyk2 kinase domain, above 1000 nM at JAK1, 100 to 1000 nM at JAK2 and above 1000 nM against JAK3.

In the case of `COC(=O)CC(c1ccccc1)n1cc(-c2nc(-c3cnn(C)c3)cc3nccn23)cn1` (centres unmarked) [Example 77, methyl 3-(4-(7-(1-methyl-1H-pyrazol-4-yl)imidazo[1,2-c]pyrimidin-5-yl)-1H-pyrazol-1-yl)-3-phenylpropanoate], the concentration for half-maximal inhibition (IC50) against Human Tyk2 kinase domain, at JAK1, against JAK2 and on JAK3 was 100 to 1000 nM throughout.

Regarding `Cc1nn(C)cc1S(=O)(=O)N1CC(CCF)(n2cc(-c3nc(-c4cnn(C)c4)cc4nccn34)cn2)C1` [Example 85, 5-(1-(1-((1,3-dimethyl-1H-pyrazol-4-yl)sulfonyl)-3-(2-fluoroethyl)azetidin-3-yl)-1H-pyrazol-4-yl)-7-(1-methyl-1H-pyrazol-4-yl)imidazo[1,2-c]pyrimidine], the IC50 against Human Tyk2 kinase domain is 100 to 1000 nM; at JAK1 it was 100 to 1000 nM; against JAK2, 100 to 1000 nM; at JAK3, above 1000 nM.

Take `Cn1cc(-c2cc3nccn3c(-c3ccn([C@@H](C[C@H](O)C(F)(F)F)C4CC4)c3)n2)cn1` [Example 102, (2S,4S)-4-cyclopropyl-1,1,1-trifluoro-4-(3-(7-(1-methyl-1H-pyrazol-4-yl)imidazo[1,2-c]pyrimidin-5-yl)-1H-pyrrol-1-yl)butan-2-ol]: the IC50 on Human Tyk2 kinase domain is 10 to 100 nM; against JAK1, 100 to 1000 nM; against JAK2, 100 to 1000 nM; at JAK3, above 1000 nM.

For the molecule `CSCCC(C1CC1)n1cc(-c2nc(-c3cnn(C)c3)cc3nccn23)cn1` (centres unmarked) [Example 62, 5-(1-(1-cyclopropyl-3-(methylthio)propyl)-1H-pyrazol-4-yl)-7-(1-methyl-1H-pyrazol-4-yl)imidazo[1,2-c]pyrimidine], the IC50 on Human Tyk2 kinase domain fell in the range of 10 to 100 nM; against JAK1, 100 to 1000 nM; against JAK2, 10 to 100 nM; at JAK3, 100 to 1000 nM.

As for `CC(=O)CC(C1CC1)n1cc(-c2nc(-c3cnn(C)c3)cc3nccn23)cn1` (centres unmarked) [Example 61, 4-cyclopropyl-4-(4-(7-(1-methyl-1H-pyrazol-4-yl)imidazo[1,2-c]pyrimidin-5-yl)-1H-pyrazol-1-yl)butan-2-one], the IC50 against Human Tyk2 kinase domain was 100 to 1000 nM; at JAK1 it was above 1000 nM; on JAK2 it was 100 to 1000 nM; at JAK3, above 1000 nM.

With `Cn1cc(-c2cc3nccn3c(-c3cnn(C(CC4CC4)CC4CC4)c3)n2)cn1` [Example 11, 5-(1-(1,3-Dicyclopropylpropan-2-yl)-1H-pyrazol-4-yl)-7-(1-methyl-1H-pyrazol-4-yl)imidazo[1,2-c]pyrimidine], the half-inhibitory concentration (IC50) is 10 to 100 nM at Human Tyk2 kinase domain, 100 to 1000 nM at JAK1, 10 to 100 nM on JAK2 and 100 to 1000 nM at JAK3.

`Cn1cc(-c2cc3nccn3c(-c3cnn([C@@H](CC=C(F)F)C4CC4)c3)n2)cn1` [Example 50, (S)-5-(1-(1-cyclopropyl-4,4-difluorobut-3-en-1-yl)-1H-pyrazol-4-yl)-7-(1-methyl-1H-pyrazol-4-yl)imidazo[1,2-c]pyrimidine]: the IC50 is below 10 nM against Human Tyk2 kinase domain, 10 to 100 nM on JAK1, below 10 nM on JAK2 and 10 to 100 nM against JAK3.

In the case of `CCCC1(n2cc(-c3nc(-c4cnn(C)c4)cc4nccn34)cn2)CN(S(=O)(=O)C(F)(F)F)C1` [Example 88, 7-(1-methyl-1H-pyrazol-4-yl)-5-(1-(3-propyl-1-((trifluoromethyl)sulfonyl)azetidin-3-yl)-1H-pyrazol-4-yl)imidazo[1,2-c]pyrimidine], the half-maximal inhibitory concentration (IC50) against Human Tyk2 kinase domain was in the range of 10 to 100 nM; at JAK1 it was 100 to 1000 nM; at JAK2, 10 to 100 nM; against JAK3, 100 to 1000 nM.

For the molecule `COCCC(c1ccc(F)cc1)n1cc(-c2nc(-c3cnn(C)c3)cc3nccn23)cn1` (centres unmarked) [Example 82, 5-(1-(1-(4-fluorophenyl)-3-methoxypropyl)-1H-pyrazol-4-yl)-7-(1-methyl-1H-pyrazol-4-yl)imidazo[1,2-c]pyrimidine], the half-inhibitory concentration (IC50) against Human Tyk2 kinase domain, at JAK1, against JAK2 and against JAK3 was 100 to 1000 nM each time.

On to `CO[C@H](C)Cn1cc(-c2cc3nccn3c(-c3cnn(C4(CCF)CN(S(=O)(=O)C(F)(F)F)C4)c3)n2)cn1` [Example 59, (R)-5-(1-(3-(2-fluoroethyl)-1-((trifluoromethyl)sulfonyl)azetidin-3-yl)-1H-pyrazol-4-yl)-7-(1-(2-methoxypropyl)-1H-pyrazol-4-yl)imidazo[1,2-c]pyrimidine], for which the IC50 at Human Tyk2 kinase domain was below 10 nM; against JAK1 it was 100 to 1000 nM; at JAK2, 10 to 100 nM; at JAK3, 100 to 1000 nM.

Regarding `COCCC1(n2cc(-c3nc(-c4cnn(C)c4)cc4nccn34)cn2)CN(S(=O)(=O)C(F)(F)F)C1` [Example 100, 5-(1-(3-(2-methoxyethyl)-1-((trifluoromethyl)sulfonyl)azetidin-3-yl)-1H-pyrazol-4-yl)-7-(1-methyl-1H-pyrazol-4-yl)imidazo[1,2-c]pyrimidine], the IC50 was below 10 nM against Human Tyk2 kinase domain, 10 to 100 nM on JAK1, 10 to 100 nM at JAK2 and 100 to 1000 nM at JAK3.
